12 compounds from ChEMBL document CHEMBL1156104, “Synthesis and anticancer activity of novel amide derivatives of non-acetal deoxoartemisinin” (Bioorg Med Chem Lett, 2009) can be followed below.

Structures are written as SMILES.

One assay deals with SK-MEL-2. Nature of the assay: Anticancer activity against human SK-MEL-2 cells by sulforhodamine B assay. The class given is functional, cell-based. On the technique in general: Sulforhodamine B stains cellular protein and so reports cell mass.
For the next assay, the species on record is Mus musculus. Nature of the assay: Antiangiogenic activity in mouse assessed as inhibition of VEGF-induced angiogenesis at 10 uM by Matrigel plug assay. The class given is functional.
In another assay the test system is SK-OV-3. Nature of the assay: Anticancer activity against human SKOV3 cells by sulforhodamine B assay. The class given is functional, cell-based.
The next assay relates to A549. The experiment in a line: Anticancer activity against human A549 cells by sulforhodamine B assay. The class given is functional, cell-based.
A further assay relates to HCT-15. The experiment in a line: Anticancer activity against human HCT15 cells by sulforhodamine B assay. The class given is functional, cell-based.
For the next assay, the system named is XF498. Nature of the assay: Anticancer activity against human XF498 cells by sulforhodamine B assay. The assay is classed as functional, cell-based.

The term IC50 denotes the concentration that gives 50% inhibition.

Take `C[C@@H]1CC[C@H]2[C@H](CBr)CO[C@@H]3O[C@]4(C)CC[C@@H]1[C@]32OO4`: the half-maximal inhibitory concentration (IC50) with SK-MEL-2 worked out at 14.2 µM; in the assay with SK-OV-3, 15.4 µM; with A549, 11.2 µM; in the assay with HCT-15, 11.2 µM; with XF498 it was 16.4 µM. For the same compound, the “inhibition (INH)” value in the assay listed under Mus musculus stood at 95%.
Consider `COC(=O)[C@@H](CS)N(Cc1ccccc1)C(=O)CC[C@H]1O[C@@H]2O[C@]3(C)CC[C@H]4[C@H](C)CCC([C@H]1C)[C@@]24OO3` (stereo not given in full), for which the IC50 in the assay with SK-MEL-2 was determined as 3.15 µM; with SK-OV-3, 2.35 µM; in the assay with A549 it was 3.12 µM; in the assay with HCT-15, 1.54 µM; with XF498, 2.66 µM.
The corresponding values for `C[C@@H]1CCC2[C@@H](C)[C@@H](CCC(=O)N3CCC(Cc4ccccc4)CC3)O[C@@H]3O[C@]4(C)CC[C@@H]1[C@@]23OO4` (stereo not given in full) are 1.25 µM, 1.65 µM, 1.35 µM, 1.45 µM and 1.95 µM.
Regarding `C[C@@H]1CCC2[C@@H](C)[C@@H](CCNC(=O)CC[C@H](NC(=O)CC[C@H]3O[C@@H]4O[C@]5(C)CC[C@H]6[C@H](C)CCC([C@H]3C)[C@@]46OO5)C(=O)NCC[C@H]3O[C@@H]4O[C@]5(C)CC[C@H]6[C@H](C)CCC([C@H]3C)[C@@]46OO5)O[C@@H]3O[C@]4(C)CC[C@@H]1[C@@]23OO4` (stereo not given in full), the IC50 turned out to be 18.2 µM in the assay on SK-MEL-2; 12.4 µM with SK-OV-3; 13.5 µM in the assay with A549; 19.8 µM in the assay on HCT-15; 11.6 µM in the assay with XF498. In the assay filed under Mus musculus, the “inhibition (INH)” value worked out at 80%.
For the compound `C[C@@H]1CCC2[C@@H](C)[C@@H](CCNC(=O)CC[C@H]3O[C@@H]4O[C@]5(C)CC[C@H]6[C@H](C)CCC([C@H]3C)[C@@]46OO5)O[C@@H]3O[C@]4(C)CC[C@@H]1[C@@]23OO4` (stereo not given in full), the 50% inhibitory concentration (IC50) was 9.94 µM in the assay on SK-MEL-2; 4.36 µM with SK-OV-3; 7.63 µM with A549; 7.83 µM with HCT-15; 5.76 µM in the assay with XF498.
The corresponding values for `C[C@H]1[C@@H](CCSCC[C@H]2O[C@@H]3O[C@]4(C)CC[C@H]5[C@H](C)CCC([C@H]2C)[C@@]35OO4)O[C@@H]2O[C@]3(C)CCC4[C@H](C)CC[C@@H]1[C@]42OO3` (stereo not given in full) are 7.56 µM, 4.86 µM, 5.63 µM, 3.53 µM and 5.44 µM.
In the same order, the values of `C[C@@H]1CCC2[C@@H](C)[C@@H](CCC(=O)NCCCN3CCN(CCCNC(=O)CC[C@H]4O[C@@H]5O[C@]6(C)CC[C@H]7[C@H](C)CCC([C@H]4C)[C@@]57OO6)CC3)O[C@@H]3O[C@]4(C)CC[C@@H]1[C@@]23OO4` (stereo not given in full) are 0.45 µM, 0.63 µM, 0.85 µM, 0.84 µM and 0.46 µM.
The corresponding values for `C[C@@H]1CCC2[C@@H](C)[C@@H](CCC(=O)NCc3ccccc3)O[C@@H]3O[C@]4(C)CC[C@@H]1[C@@]23OO4` (stereo not given in full) are 8.36 µM, 4.75 µM, 5.13 µM, 6.22 µM and 3.46 µM.
For the compound `CO[C@H]1O[C@@H]2O[C@@]3(C)CC[C@H]4[C@H](C)CC[C@@H]([C@H]1C)[C@@]24OO3` [ARTEMETHER], the IC50 with SK-MEL-2 is 7.24 µM; with SK-OV-3, 8.03 µM; with A549 it was 8.54 µM; in the assay on HCT-15, 9.66 µM; in the assay with XF498, 9.1 µM.
With `C[C@@H]1CC[C@H]2[C@@H](C)C(=O)O[C@@H]3O[C@@]4(C)CC[C@@H]1[C@]32OO4` [ARTEMISININ], the half-maximal inhibitory concentration (IC50) in the assay with SK-MEL-2 came to 12.9 µM; in the assay with SK-OV-3, 14.3 µM; in the assay on A549, 15.2 µM; in the assay with HCT-15, 17.2 µM; in the assay on XF498, 16.2 µM.
The corresponding values for `C[C@H]1[C@@H](O)O[C@@H]2O[C@@]3(C)CC[C@H]4[C@H](C)CC[C@@H]1[C@@]24OO3` [ARTENIMOL] are 0.75 µM, 0.85 µM, 0.63 µM, 0.46 µM and 0.54 µM.
Turning to `COc1cccc2c1C(=O)c1c(O)c3c(c(O)c1C2=O)C[C@@](O)(C(=O)CO)C[C@@H]3O[C@H]1C[C@H](N)[C@H](O)[C@H](C)O1` [DOXORUBICIN], the IC50 in the assay with SK-MEL-2 was 0.028 µM; in the assay on SK-OV-3 it was 0.046 µM; in the assay on A549 it was 0.075 µM.
